This note sets out measurements from patent US11325884B2, “Ketone inhibitors of lysine gingipain” (CORTEXYME, INC., priority 2016, dated 2022).

Several values for one entry are separate records, joined by “and”; a condition that tells them apart may be missing. Equal values may be shown once.

Tested on in the first data set: not listed separately
Put plainly: Oral pharmacokinetics in CD-1 mice. The format is in vivo. The note with it: male CD-1 mice, p.o. 10 mg/kg.
As to `NCCCC[C@H](NC(=O)C1CCCC1)C(=O)COc1ccon1` [Compound 49, (S)—N-(7-amino-1-(isoxazol-3-yloxy)-2-oxoheptan-3-yl)cyclopentanecarboxamide], the “concentrations in the brain and cerebrospinal fluid (CSF)” value is “reduced”. As for `COC(C)(C)C(=O)N[C@@H](CCCCN)C(=O)COc1c(F)ccc(F)c1F` [Compound 47, (S)—N-(7-amino-2-oxo-1-(2,3,6-trifluorophenoxy)heptan-3-yl)-2-methoxy-2-methylpropanamide], the “concentrations in the brain and cerebrospinal fluid (CSF)” value was “increased”.

Staying with this data set, now noted: male CD-1 mice, p.o. 10 mg/kg, as compared to reference compound 73.
Consider `COC(C)(C)C(=O)N[C@@H](CCCCN)C(=O)COc1c(F)cccc1F` [Compound 48, (S)—N-(7-amino-1-(2,6-difluorophenoxy)-2-oxoheptan-3-yl)-2-methoxy-2-methylpropanamide], for which the oral availability entry is listed as “improved” and the plasma concentrations result was “increased”. `COC(C)(C)C(=O)N[C@@H](CCCCN)C(=O)COc1c(F)ccc(F)c1F` [Compound 47, (S)—N-(7-amino-2-oxo-1-(2,3,6-trifluorophenoxy)heptan-3-yl)-2-methoxy-2-methylpropanamide]: the oral availability result is recorded as “improved” and the plasma concentrations result was “increased”.

Another data set addresses lysine gingipain (Kgp) (Porphyromonas gingivalis (strain ATCC 33277 / DSM 20709 / CIP 103683 / JCM 12257 / NCTC 11834 / 2561), UniProt B2RLK2). Put plainly: Inhibition of lysine gingipain, fluorogenic assay (Z-His-Glu-Lys-MCA). The class given is biochemical.
Conditions: not given
On the procedure: The specific assay conditions were as follows. Buffer: pH=7.5, 100 mM Tris-HCl, 75 mM NaCl, 2.5 mM CaCl2, 10 mM cysteine, 1% DMSO after all additions. Protein: 0.1 nM Kgp, isolated from culture of Porphyromonas gingivalis, as described by Pike et al. (J. Biol. Chem. 1994, 269(1), 406), and Potempa and Nguyen (Current Protocols in Protein Science. 2007, 21.20.1-21.20.27). Fluorogenic substrate: 10 μM Z-His-Glu-Lys-MCA. Time=90 minutes. Temperature=37° C.
Further assays to measure the inhibitory activity of compounds of the present invention against Kgp and cathepsins B, H, K, L, and S were conducted as described in Example 66. The capacities of the compounds to inhibit the activity of cathepsins F, V, and Z were also measured.
For the compound `NCCCC[C@H](NC(=O)C1CCCC1)C(=O)COc1c(F)c(F)cc(F)c1F` (stereo in doubt) [Compound 73, N-[7-amino-2-oxo-1-(2,3,5,6-tetrafluorophenoxy)heptan-3-yl]cyclopentanecarboxamide, reference compound], the “Kgp IC50 values (in words)” value is given as “sub-nanomolar”.

The same data set, now with this note: Table 3; read-out: IC50 (nM) Kgp.
For `NCCCCC(NC(=O)C1CCCC1)C(=O)COCC(F)(F)F` (stereo not drawn) [Compound 17a], the IC50 was > 100 nM. Still for that read-out and setting: the value for `NCCCCC(NC(=O)C1CCCC1)C(=O)COc1cc(F)cc(F)c1F` (stereo not drawn) [Compound 4a] was 0.07 nM. Still for that read-out and setting: the value for `NCCCC[C@@H](NC(=O)C1CCCC1)C(=O)COc1c(F)c(F)cc(F)c1F` [Compound 74, reference compound] was ≤ 0.05 nM; that for `NCCCCC(NC(=O)C1CCCC1)C(=O)COc1ccccc1F` (stereo not drawn) [Compound 3a] was 0.64 nM. Consider `CS(=O)(=O)CC(=O)C(CCCCN)NC(=O)C1CCCC1` (stereo not drawn) [Compound 20a], for which the IC50 was > 100 nM. For `NCCCCC(NC(=O)C1CCCC1)C(=O)COc1cccc(F)c1F` (stereo not drawn) [Compound 5a], the IC50 was 0.15 nM.

Consider `NCCCC[C@H](NC(=O)C1CCCC1)C(=O)COc1c(F)c(F)cc(F)c1F` (stereo in doubt) [Compound 73, N-[7-amino-2-oxo-1-(2,3,5,6-tetrafluorophenoxy)heptan-3-yl]cyclopentanecarboxamide, reference compound], for which the IC50 is ≤ 0.05 nM. `NCCCCC(NC(=O)C1CCCC1)C(=O)COC(C(F)(F)F)C(F)(F)F` (stereo not drawn) [Compound 18a]: the IC50 turned out to be 0.5 nM. With `NCCCCC(NC(=O)C1CCCC1)C(=O)COc1cc(F)ccc1F` (stereo not drawn) [Compound 6a], the 50% inhibitory concentration (IC50) was 0.19 nM. With `CN(C)CC(=O)C(CCCCN)NC(=O)C1CCCC1` (stereo not drawn) [Compound 19a], the IC50 was > 100 nM. In the case of `NCCCCC(NC(=O)C1CCCC1)C(=O)COc1cc(F)cc(F)c1` (stereo not drawn) [Compound 8a], the IC50 was 0.34 nM. Regarding `NCCCCC(NC(=O)C1CCCC1)C(=O)COc1c(F)cccc1F` (stereo not drawn) [Compound 2a], the IC50 is ≤ 0.05 nM and 0.11 nM. The same measure, in the same setting: to `CSCC(=O)C(CCCCN)NC(=O)C1CCCC1` (stereo not drawn) [Compound 16a] belongs > 100 nM; to `[N-]=[N+]=Nc1cccc(C(=O)NC(CCCCN)C(=O)COc2c(F)cccc2F)c1` (stereo not drawn) [Compound 12a], 0.08 nM. With `NCCCCC(NC(=O)C1CCCC1)C(=O)COc1cccc(F)c1` (stereo not drawn) [Compound 7a], the IC50 came to 1.3 nM.

Staying with this data set, now noted: Table 4; read-out: IC50 (nM) Kgp.
Turning to `NCCCCC(NC(=O)c1cccc(F)c1)C(=O)COc1c(F)cccc1F` (stereo not drawn) [Compound 26a], the half-maximal inhibitory concentration (IC50) came out at 0.09 nM. Still for that read-out and setting: the value for `NCCCCC(NC(=O)c1cccnc1Br)C(=O)COc1c(F)cccc1F` (stereo not drawn) [Compound 34a] was 0.13 nM. For the compound `[N-]=[N+]=Nc1cccc(C(=O)NC(CCCCN)C(=O)COc2c(F)cccc2F)c1` (stereo not drawn) [Compound 33a], the concentration for half-maximal inhibition (IC50) is 0.08 nM. With `NCCCCC(NC(=O)c1cccnc1F)C(=O)COc1ccon1` (stereo not drawn) [Compound 56a], the IC50 turned out to be 0.1 nM. Consider `NCCCCC(NC(=O)c1cccnc1F)C(=O)COc1c(F)cccc1F` (stereo not drawn) [Compound 32a], for which the IC50 is 0.08 nM. For the compound `NCCCCC(NC(=O)c1ccc(F)nc1)C(=O)COc1ccon1` (stereo not drawn) [Compound 55a], the 50% inhibitory concentration (IC50) is 0.12 nM. For `NCCCCC(NC(=O)c1ccc(F)nc1)C(=O)COc1c(F)cccc1F` (stereo not drawn) [Compound 29a], the half-inhibitory concentration (IC50) was found to be 0.31 nM. For the compound `NCCCCC(NC(=O)C1CCCC1)C(=O)Cn1cncc(F)c1=O` (stereo not drawn) [Compound 41a], the IC50 is > 100 nM. `C[N+](C)(C)c1ccc(C(=O)NC(CCCCN)C(=O)COc2ccon2)cn1` (stereo not drawn) [Compound 61a]: the IC50 stood at 0.43 nM.

As to `COC(C)(C)C(=O)NC(CCCCN)C(=O)COc1cnc(C)nc1` (stereo not drawn) [Compound 65a], the IC50 is 0.16 nM. With `NCCCC[C@H](NC(=O)C1CCCC1)C(=O)COc1c(F)c(F)cc(F)c1F` (stereo in doubt) [Compound 73, N-[7-amino-2-oxo-1-(2,3,5,6-tetrafluorophenoxy)heptan-3-yl]cyclopentanecarboxamide, reference compound], the IC50 was < 0.05 nM.

In the case of `CS(C)(=O)=CC(=O)C(CCCCN)NC(=O)C1CCCC1` (stereo not drawn) [Compound 58a], the half-maximal inhibitory concentration (IC50) came out at 4.66 nM. Still for that read-out and setting: the value for `NCCCCC(NC(=O)c1cccc(OCCF)c1)C(=O)COc1c(F)cccc1F` (stereo not drawn) [Compound 27a] was 0.27 nM; that for `NCCCCC(NC(=O)C1CCCC1)C(=O)COc1ccon1` (stereo not drawn) [Compound 49a] was 0.23 nM. The same measure, in the same setting: the value for `NCCCCC(NC(=O)c1cccnc1)C(=O)COc1c(F)ccc(F)c1F` (stereo not drawn) [Compound 42a] was 0.06 nM.

Turning to `NCCCCC(NC(=O)C1CCCC1)C(=O)Cn1cnccc1=O` (stereo not drawn) [Compound 39a], the IC50 was > 100 nM.

Turning to `COC(C)(C)C(=O)NC(CCCCN)C(=O)COc1ccon1` (stereo not drawn) [Compound 57a], the IC50 was 0.09 nM. Regarding `NCCCCC(NC(=O)c1ccc(F)cc1)C(=O)COc1c(F)cccc1F` (stereo not drawn) [Compound 35a], the IC50 was determined as 0.1 nM. Same read-out and setting: to `NCCCCC(NC(=O)C1CCCC1)C(=O)Cn1ccc(=O)nc1` (stereo not drawn) [Compound 40a] belongs 30.3 nM; to `CN(C)c1ccc(C(=O)NC(CCCCN)C(=O)COc2ccon2)cn1` (stereo not drawn) [Compound 62a], 0.14 nM. Take `NCCCCC(NC(=O)c1cccnc1)C(=O)COc1c(F)cccc1F` (stereo not drawn) [Compound 43a]: the half-inhibitory concentration (IC50) is 0.09 nM. With `NCCCCC(NC(=O)C1CCCC1)C(=O)COC(C(F)(F)F)C(F)(F)F` (stereo not drawn) [Compound 18a], the 50% inhibitory concentration (IC50) was found to be 0.5 nM.

As to `NCCCCC(NC(=O)c1ccnc(F)c1)C(=O)COc1c(F)cccc1F` (stereo not drawn) [Compound 31a], the IC50 came out at 0.15 nM. As for `NCCCCC(NC(=O)c1cccc(F)n1)C(=O)COc1c(F)cccc1F` (stereo not drawn) [Compound 28a], the IC50 turned out to be 0.34 nM.

Turning to `COC(C)(C)C(=O)NC(CCCCN)C(=O)COc1cccnc1` (stereo not drawn) [Compound 64a], the half-inhibitory concentration (IC50) stood at 0.4 nM.

`COC(C)(C)C(=O)NC(CCCCN)C(=O)COc1cc(C)nc(C)c1` (stereo not drawn) [Compound 63a]: the half-maximal inhibitory concentration (IC50) worked out at 0.09 nM. On to `NCCCCC(NC(=O)c1cccc(OCCCF)c1)C(=O)COc1c(F)cccc1F` (stereo not drawn) [Compound 30a], for which the IC50 was 0.21 nM. Still for that read-out and setting: to `NCCCCC(NC(=O)C1CCCC1)C(=O)COc1c(F)cccc1F` (stereo not drawn) [Compound 2a] belongs < 0.05 nM. Take `NCCCCC(NC(=O)c1ccccc1)C(=O)C(F)F` (stereo not drawn) [Compound 37a]: the IC50 was > 100 nM. In the case of `COC(C)(C)C(=O)NC(CCCCN)C(=O)COc1c(F)cccc1F` (stereo not drawn) [Compound 48a], the half-maximal inhibitory concentration (IC50) came to 0.07 nM.

With `CN(C)c1ccc(/N=N/c2ccc(C(=O)NCc3cc(F)c(OCC(=O)C(CCCCN)NC(=O)c4cccc(N=[N+]=[N-])c4)c(F)c3)cc2)cc1` (stereo not drawn) [Compound 44a], the IC50 was 3.04 nM. The same measure, in the same setting: to `COC(C)(C)C(=O)NC(CCCCN)C(=O)COc1c(F)ccc(F)c1F` (stereo not drawn) [Compound 47a] belongs 0.06 nM; to `COC(C)(C)C(=O)NC(CCCCN)C(=O)COC(C(F)(F)F)C(F)(F)F` (stereo not drawn) [Compound 69a], 0.21 nM. Same read-out and setting: the value for `NCCCCC(NC(=O)c1ccccn1)C(=O)COc1c(F)ccc(F)c1F` (stereo not drawn) [Compound 50a] was 0.09 nM; that for `NCCCCC(NC(=O)C1CCCC1)C(=O)COc1cccc(F)c1` (stereo not drawn) [Compound 7a] was 1.3 nM; that for `NCCCCC(NC(=O)c1ccncc1)C(=O)COc1c(F)ccc(F)c1F` (stereo not drawn) [Compound 52a] was 0.06 nM.

Still in this data set, the particulars now being: Table 5, probe compounds; read-out: Kgp IC50.
For `NCCCC[C@H](NC(=O)C1CCCC1)C(=O)COc1c(F)c(F)cc(F)c1F` (stereo in doubt) [Compound 73, N-[7-amino-2-oxo-1-(2,3,5,6-tetrafluorophenoxy)heptan-3-yl]cyclopentanecarboxamide, reference compound], the IC50 is < 0.05 nM.

In the case of `CN(C)c1ccc(/N=N/c2ccc(C(=O)NCc3cc(F)c(OCC(=O)C(CCCCN)NC(=O)c4cccc(N=[N+]=[N-])c4)c(F)c3)cc2)cc1` (stereo not drawn) [Compound 44a], the IC50 is 3 nM.

The data set is the same for the next values; noted with them: as compared to reference compound 73.
With `NCCCC[C@H](NC(=O)c1ccccn1)C(=O)COc1c(F)ccc(F)c1F` [Compound 50, (S)—N-(7-amino-2-oxo-1-(2,3,6-trifluorophenoxy)heptan-3-yl)picolinamide], the “selectivity for Kgp over endogenous cathepsins” value (from here on “selectivity for Kgp”) is recorded as “increased selectivity”. The same measure, in the same setting: to `NCCCC[C@H](NC(=O)C1CCCC1)C(=O)COc1c(F)cccc1F` [Compound 2, (S)—N-(7-amino-1-(2,6-difluorophenoxy)-2-oxoheptan-3-yl)cyclopentanecarboxamide] belongs “increased selectivity”. As to `COC(C)(C)C(=O)N[C@@H](CCCCN)C(=O)COc1c(F)ccc(F)c1F` [Compound 47, (S)—N-(7-amino-2-oxo-1-(2,3,6-trifluorophenoxy)heptan-3-yl)-2-methoxy-2-methylpropanamide], the “selectivity for Kgp” value was “far more selective”.

With `NCCCC[C@H](NC(=O)C1CCCC1)C(=O)COC(C(F)(F)F)C(F)(F)F` [Compound 18, (S)—N-(7-amino-1-((1,1,1,3,3,3-hexafluoropropan-2-yl)oxy)-2-oxoheptan-3-yl)cyclopentanecarboxamide], the “selectivity for Kgp” value is recorded as “far more selective”. In the case of `NCCCC[C@H](NC(=O)c1ccc(F)nc1)C(=O)COc1ccon1` [Compound 55, (S)—N-(7-amino-1-(isoxazol-3-yloxy)-2-oxoheptan-3-yl)-6-fluoronicotinamide], the “selectivity for Kgp” value is given as “far more selective”. Take `NCCCC[C@H](NC(=O)C1CCCC1)C(=O)COc1cccc(F)c1` [Compound 7, (S)—N-(7-amino-1-(3-fluorophenoxy)-2-oxoheptan-3-yl)cyclopentanecarboxamide]: the “selectivity for Kgp” value is recorded as “increased selectivity”.
